Several values for one entry are separate records, joined by “and”; a condition that tells them apart may be missing. Equal entries are not always repeated.

Data set [1] is described as follows: Body weight and organ examination of tumour-bearing mice. It counts as in vivo, NOD/SCID mice. Particulars: KG-1a-bearing mice, 14 days, individual mice, listed as LLV. As to the method:
(§1) 7-week old female NOD/SCID mice were taken and inoculated subcutaneously with 1×10^7 cells (0.2 ml) per mouse in axilla, with human acute myelogenous leukemia KG-1a cells on the left and human acute monocytic leukemia THP-1 cells on the right. When tumors grew to a tumor size of around 0.5 cm, the mice were randomized into groups with 3 mice each. An equivalent amount of PBS was used for the control group, and the 14-D-Valine-TPL group was divided into two groups with 0.2 mg/kg body weight and 0.4 mg/kg body weight: intragastric administration 2 times a day (one at 8 a.m. and one at 4 p.m.) for consecutive 14 days of treatment. An observation was made for total 30 days, during which the conditions of the mice such as tumor size, weight, activity, diet, and the like were measured. At the end of the experiment, the mice were sacrificed, tumor tissues were taken and the tumors were weighed, and major organs and tissues of the mice such as liver, spleen, heart, lung, large intestine, small intestine, and the like were examined.
as §1, with “the left.” for “the left and human acute monocytic leukemia THP-1 cells on the right.”, “around 50-100 mm^3,” for “around 0.5 cm,”, “the TPL-LLV” for “the 14-D-Valine-TPL”, “with 0.23” for “with 0.2”, “and 0.46” for “and 0.4”, “intragastric administration,” for “intragastric administration”
as §1, with “the left.” for “the left and human acute monocytic leukemia THP-1 cells on the right.”, “around 50-100 mm^3,” for “around 0.5 cm,”, “the TPL-DLV” for “the 14-D-Valine-TPL”, “with 0.23” for “with 0.2”, “and 0.46” for “and 0.4”, “intragastric administration,” for “intragastric administration”
7-week old female NOD/SCID mice were taken and inoculated subcutaneously with 1×10^7 cells (0.2 ml) per mouse in axilla, with human acute myelogenous leukemia KG-1a cells on the left. When tumors grew to a tumor size of around 50-100 mm^3, the mice were randomized into groups with 3 mice each. An equivalent amount of PBS was used for the control group, and the TPL-DLV group was divided into two groups with 0.32 mg/kg body weight and 0.64 mg/kg body weight: intragastric administration, 2 times a day (one at 8 a.m. and one at 4 p.m.) for consecutive 14 days of treatment. An observation was made for total 30 days, during which the conditions of the mice such as tumor size, weight, activity, diet, and the like were measured. At the end of the experiment, the mice were sacrificed, tumor tissues were taken and the tumors were weighed, and major organs and tissues of the mice such as liver, spleen, heart, lung, large intestine, small intestine, and the like were examined. […]

Data set [2] deals with human acute myelogenous leukemia KG-1a cells. The data set can be described thus: KG-1a subcutaneous xenograft in NOD/SCID mice. It is filed as in vivo. Particulars: 14 days; for Tumor volume: KG-1a, individual mice, listed as LLV. How it is done:
as §1
(§2) 7-week old female NOD/SCID mice were taken and inoculated subcutaneously with 1×10^7 cells (0.2 ml) per mouse in axilla, with human acute myelogenous leukemia KG-1a cells on the left. When tumors grew to a tumor size of around 50-100 mm^3, the mice were randomized into groups with 3 mice each. An equivalent amount of PBS was used for the control group, and the TPL-LLV group was divided into two groups with 0.23 mg/kg body weight and 0.46 mg/kg body weight: intragastric administration, 2 times a day (one at 8 a.m. and one at 4 p.m.) for consecutive 14 days of treatment. An observation was made for total 30 days, during which the conditions of the mice such as tumor size, weight, activity, diet, and the like were measured. At the end of the experiment, the mice were sacrificed, tumor tissues were taken and the tumors were weighed, and major organs and tissues of the mice such as liver, spleen, heart, lung, large intestine, small intestine, and the like were examined.
as §2, with “TPL-DLV” for “TPL-LLV”
7-week old female NOD/SCID mice were taken and inoculated subcutaneously with 1×10^7 cells (0.2 ml) per mouse in axilla, with human acute myelogenous leukemia KG-1a cells on the left. When tumors grew to a tumor size of around 50-100 mm^3, the mice were randomized into groups with 3 mice each. An equivalent amount of PBS was used for the control group, and the TPL-DLV group was divided into two groups with 0.32 mg/kg body weight and 0.64 mg/kg body weight: intragastric administration, 2 times a day (one at 8 a.m. and one at 4 p.m.) for consecutive 14 days of treatment. An observation was made for total 30 days, during which the conditions of the mice such as tumor size, weight, activity, diet, and the like were measured. At the end of the experiment, the mice were sacrificed, tumor tissues were taken and the tumors were weighed, and major organs and tissues of the mice such as liver, spleen, heart, lung, large intestine, small intestine, and the like were examined.

The next data set concerns KG-1a. The data set can be described thus: MTT growth inhibition, KG-1a cells, 72 h. It is filed as cell-based. As to conditions: Homo sapiens. How it is done: (§3) 5000 well-grown leukemia cells were taken and seeded into wells of a 96-well cell culture plate. The medium was 1640 cell medium containing 10% fetal bovine serum. 14-D-Valine-TPL with different concentrations was added, and after being uniformly mixed, the plate was placed in a carbon dioxide (5% CO2) cell incubator, and incubated at 37° C. for 72 hours. The concentration of live cells was then determined using the MTT assay. In this experiment, the cell viability in the control group (without the compound treatment) was set to be 100%, and the cell viability (%) after the action of the compound and the half maximal growth inhibitory concentration of leukemia cells at 72 hours (IC50 value at 72 hours) were calculated.

For the next data set, the system named is L615 leukemia. As to conditions: mouse, in vivo; cited from earlier work.
For data set [3] the following is noted: oral and intravenous injection; cited from earlier work.
The test system of a further data set is Molt-4. The data set can be described thus: MTT growth inhibition, Molt-4 cells, 72 h. It is filed as cell-based, human. As to conditions: for Therapeutic window: IC50 of normal blood cells/IC50 of Molt-4. As to the method: (§4) 5000 well-grown leukemia cells or normal human blood cells were taken and seeded into wells of a 96-well cell culture plate. The medium was 1640 cell medium containing 10% fetal bovine serum. 14-D-Valine-TPL with different concentrations was added, and after being uniformly mixed, the plate was placed in a carbon dioxide (5% CO2) cell incubator, and incubated at 37° C. for 72 hours. The concentration of live cells was then determined using the MTT assay. In this experiment, the cell viability in the control group (without the compound treatment) was set to be 100%, and the cell viability (%) after the action of the compound the half maximal growth inhibitory concentration of leukemia cells at 72 hours (IC50 value at 72 hours) and the therapeutic window index were calculated. Therapeutic window index=IC50 value of normal blood cells/IC50 value of leukemia cells. […] A larger therapeutic window indicates a better selectivity of the compound for tumor cells.
as §3
as §3, with “well-grown lymphocytes” for “well-grown leukemia cells”

The next data set has as its system Jurkat. The data set can be described thus: MTT growth inhibition, Jurkat cells, 72 h. It is filed as cell-based, human. How it is done: as §4, §3
as §3, with “well-grown lymphocytes” for “well-grown leukemia cells”

The subject of the next data set is normal human blood cells. The data set can be described thus: MTT assay, normal human blood cells, 72 h. It counts as cell-based. Particulars: Homo sapiens, 72 h, Normal Blood Cell, Overall, MTT, read-out: IC50. How it is done: Leukemia cell strains: Sup-B15 (Ph+acute lymphoblastic leukemia), CEM (acute lymphoblastic leukemia, ALL), and Molt-4 (acute lymphoblastic leukemia, ALL). Normal blood cell samples: peripheral blood from healthy volunteers. • Primary reagent: 14-D-Valine-TPL of the invention. Primary instruments: cell incubator and microplate reader. (2) Experimental Method
as §4

A further data set deals with CEM. The data set can be described thus: MTT growth inhibition, CEM cells, 72 h. It is filed as cell-based, human. How it is done:
as §4, §3
as §3, with “well-grown lymphocytes” for “well-grown leukemia cells”

The next data set relates to Sup-B15. The data set can be described thus: MTT growth inhibition, Sup-B15 cells, 72 h. It is filed as cell-based, human. How it is done: as §4, §3
as §3, with “well-grown lymphocytes” for “well-grown leukemia cells”

For the next data set, the system named is human leukemia. Particulars: human leukemia (18/45); cited from earlier work.

For `CC(C)[C@H](N)C(=O)N[C@H](C(=O)O[C@@H]1[C@@]2(C(C)C)O[C@H]2[C@@H]2O[C@]23[C@]12O[C@H]2C[C@H]1C2=C(CC[C@@]13C)C(=O)OC2)C(C)C` [14-L-Valine-L-Valine-TPL, 14-Levo-Valine-Levo-Valine-Triptolide], the Body weight is 19.4 g and 19.7 g and 20.5 g in data set [1] (0.23 mg/kg intragastric 2 times a day, 0.23 mg/kg); 20.0 g and 18.9 g and 18.6 g in data set [1] (0.46 mg/kg intragastric 2 times a day, 0.46 mg/kg). In [2] (KG-1a xenograft, intragastric 2 times a day, dose-dependent effect), the “growth of KG-1a in mice in vivo (in words)” value was “significantly inhibit the growth”. Besides, the Tumor volume in [2] (trifluoroacetate 0.23 mg/kg intragastric 2 times a day) was 804.56 mm^3 and 644.07 mm^3 and 1105.64 mm^3; in [2] (trifluoroacetate 0.46 mg/kg intragastric 2 times a day), 383.11 mm^3 and 356.82 mm^3 and 317.61 mm^3. Further, the IC50 with KG-1a turned out to be 20 nM.
In the case of `CC(C)[C@]12O[C@H]1[C@@H]1O[C@]13[C@]1(O[C@H]1C[C@H]1C4=C(CC[C@@]13C)C(=O)OC4)[C@@H]2O` [TPL, Triptolide], the “survival time of L615 leukemia mice” value in the data set with L615 leukemia was “significantly prolong the survival time”. Moreover, in data set [3], the “elimination half-life (in words)” value is “short elimination half-life”. The IC50 was 10.7 nM in the data set on Molt-4 (Homo sapiens, Molt-4, MTT, 72 hours, read-out: IC50); 33.8 nM in the data set with Jurkat (Homo sapiens, Jurkat, MTT, 72 hours, read-out: IC50); 21.7 nM in the data set on normal human blood cells; 23.3 nM in the data set with CEM (Homo sapiens, CCRF-CEM, CEM, MTT, 72 hours, read-out: IC50); 23.2 nM with Sup-B15 (Homo sapiens, Sup-B15, MTT, 72 hours, read-out: IC50). For the same compound, the Therapeutic window in the data set with Molt-4 is on record as 2.03; in the data set on Molt-4 (listed as triptolide), 2.0; in the data set with Jurkat (IC50 of normal blood cells/IC50 of Jurkat), 0.64; in the data set on CEM (IC50 of normal blood cells/IC50 of CEM), 0.93; with Sup-B15 (IC50 of normal blood cells/IC50 of Sup-B15), 0.94. In the data set on human leukemia, the complete remission rate entry was “up to 40%”.

The values above are taken from patent US10238623B2, “C14-hydroxyl esterified amino acid derivative of triptolide, and preparation method and use thereof” (HANGZHOU WEBEN PHARMACEUTICALS INC, priority 2015, dated 2019).
